Common to all, as to assay type: in vivo
One assay relates to Lindemia pyxidaria. The assay is described as follows: Test Example 2: herbicidal effect test by application during growth period of paddy rice. Particulars: 7 days after sowing, 120 g per 10 ares, 14 days after application, read-out: weed inhibition rate. The procedure:
(§1) Herbicidal Effect Test by Application During Growth Period of Paddy Rice
(§2) Wagner pots with an area of 1/10,000 […] were filled with paddy soil, followed by addition of water and incorporation of chemical fertilizer (N:P:K=16:16:16), after which puddling was performed. After that, seeds of Echinochloa crus-galli var. formosensis, broad-leaved weeds (Lindemia pyxidaria, and Monochoria vaginalis), and Scirpus juncoides were sown at a depth of 0 cm to 1 cm, 30 seeds each. Immediately after sowing, the pots were flooded and a water depth of approximately 3 cm was maintained. Subsequent management was conducted in a glass greenhouse. Seven days after sowing, an emulsifiable concentrate prepared according to Formulation Example 5 using the compound shown below was diluted with water, and a specified amount of the diluted solution was applied by dropper. The amount of the active ingredient to be applied was equivalent to 120 g per 10 ares. The test was conducted in duplicate for each chemical concentration group, and the herbicidal effect was evaluated 14 days after chemical application using the same criteria as in Test Example 1.

Assay [1] has as its system Echinochloa crus-galli var. formosensis. Kind of assay: Test Example 1: herbicidal effect test by soil application in paddy rice. Particulars: 120 g per 10 ares, 14 days after application; for inhibition at 1200 g/ha: Echinochloa crus-galli, 336 h, read-out: weed inhibition rate. The procedure: (§3) Herbicidal Effect Test by Soil Application in Paddy Rice
as §2, with “(Lindernia pyxidaria” for “(Lindemia pyxidaria,”, “Immediately thereafter,” for “Seven days after sowing,”, “ares.” for “ares. The test was conducted in duplicate for each chemical concentration group, and the herbicidal effect was evaluated 14 days after chemical application using the same criteria as in Test Example 1.”
(§4) The present test was conducted in duplicate for each chemical concentration group, and the weed inhibition rate (%) was determined 14 days after chemical application using the following formula (Math. 1).

For assay [2] the test system is unchanged. The assay is described as follows: Test Example 2: herbicidal effect test by application during growth period of paddy rice. Particulars: 7 days after sowing, 120 g per 10 ares, 14 days after application; for inhibition at 1200 g/ha: Echinochloa crus-galli, read-out: weed inhibition rate. The procedure: as §1, §2
The test system of assay [3] is Digitaria ciliaris. Kind of assay: Test Example 3: herbicidal effect test by soil application in upland field. Particulars: 1 day after sowing, 120 g per 10 ares, 14 days after application; for inhibition at 1200 g/ha: Digitaria ciliaris, read-out: weed inhibition rate. The procedure: (§5) Herbicidal Effect Test by Soil Application in Upland Field
(§6) Pots with an area of 36 cm^2 were filled with upland soil (alluvial loam), twenty seeds each of weeds of Digitaria ciliaris, Echinochloa crus-galli, Chenopodium album, and Amaranthus viridis were uniformly mixed with the top 1 cm layer of soil and the surface was lightly pressed down. One day after sowing, an emulsifiable concentrate prepared according to Formulation Example 5 using the compound shown below was diluted with water, and the diluted solution was sprayed onto the soil surface at a rate of 100 liters per 10 ares. The amount of the active ingredient to be applied was equivalent to 120 g per 10 ares. Fourteen days after chemical application, the herbicidal effect was evaluated according to the same criteria as in Test Example 1.

For assay [4], the system named is Echinochloa crus-galli. The description is as above. Particulars: 1 day after sowing, 120 g per 10 ares, 14 days after application; for inhibition at 1200 g/ha: Echinochloa crus-galli, read-out: weed inhibition rate. As for the experimental part:
as §5, §6

Assay [5] relates to Digitaria ciliaris. The assay is described as follows: Test Example 4: herbicidal effect test by stem and leaf treatment in upland field. As to conditions: 7 days after sowing, 120 g per 10 ares, 14 days after application; for inhibition at 1200 g/ha: Digitaria ciliaris, read-out: weed inhibition rate. The procedure:
(§7) Herbicidal Effect Test by Stem and Leaf Treatment in Upland Field
as §6, with “Seven days” for “One day”

Assay [6] relates to Echinochloa crus-galli. The description is as above. Particulars: 7 days after sowing, 120 g per 10 ares, 14 days after application; for inhibition at 1200 g/ha: Echinochloa crus-galli, read-out: weed inhibition rate. As for the experimental part:
as §7
as §6, with “Seven days” for “One day”

The subject of assay [7] is Scirpus juncoides. Kind of assay: Test Example 1: herbicidal effect test by soil application in paddy rice. As to conditions: 120 g per 10 ares, 14 days after application. The procedure: as §3
as §2, with “(Lindernia pyxidaria” for “(Lindemia pyxidaria,”, “Immediately thereafter,” for “Seven days after sowing,”, “ares.” for “ares. The test was conducted in duplicate for each chemical concentration group, and the herbicidal effect was evaluated 14 days after chemical application using the same criteria as in Test Example 1.”
as §4

The subject of assay [8] is Scirpus juncoides. The assay is described as follows: Test Example 2: herbicidal effect test by application during growth period of paddy rice. Particulars: 7 days after sowing, 120 g per 10 ares, 14 days after application. As for the experimental part: as §1, §2

A value given as a limit tells only on which side of the number the result lay.

With `C=CCO[C@@H]1C[C@]2(C)O[C@@]1(C(C)C)C[C@H]2OCc1ccccc1F` [1-930, (1S,2R,4R,5R)-2-[(2-fluorophenyl)methoxy]-1-methyl-4-isopropyl-5-prop-2-enoxy-7-oxabicyclo[2.2.1]heptane], in the assay on Lindemia pyxidaria, the inhibition at 1200 g/ha is no less than 80%.
Take `CC(C)[C@]12C[C@@H](OCc3ccc(F)cc3)[C@](C)(CC1=O)O2` [2-349, (1R,4S,5R)-5-((4-fluorobenzyl)oxy)-1-isopropyl-4-methyl-7-oxabicyclo[2.2.1]heptan-2-one]: the inhibition at 1200 g/ha with Lindemia pyxidaria was no less than 80%.
Same read-out and setting: for `Cc1ccccc1CO[C@@H]1C[C@]2(C(C)C)O[C@@]1(C)CC2=O` [2-3, (1R,4S,5R)-1-isopropyl-4-methyl-5-((2-methylbenzyl)oxy)-7-oxabicyclo[2.2.1]heptan-2-one] the value was no less than 80%.
Take `CC(C)[C@]12C[C@@H](OCc3ccccc3F)[C@](C)(C[C@@H]1OCc1ccccc1)O2` [1-1606, (1S,2R,4R,5S)-2-[(2-fluorophenyl)methoxy]-1-methyl-5-phenylmethoxy-4-isopropyl-7-oxabicyclo[2.2.1]heptane]: the inhibition at 1200 g/ha (in assay [1]; in assay [2]; with Digitaria ciliaris [3]; in the assay on Echinochloa crus-galli [4]; in the assay on Digitaria ciliaris [5]; with Echinochloa crus-galli [6]) was no less than 80% each time.
Turning to `COC1(OC)C[C@]2(C)O[C@@]1(C(C)C)C[C@H]2OCc1ccccc1F` [1-935, (1R,4S,5R)-5-((2-fluorobenzyl)oxy)-1-isopropyl-2,2-dimethoxy-4-methyl-7-oxabicyclo[2.2.1]heptane], the inhibition at 1200 g/ha in the assay on Lindemia pyxidaria is no less than 80%.
The same measure, in the same setting: as for `C=C1C[C@]2(C)O[C@@]1(C(C)C)C[C@H]2OCc1ccccc1F` [2-88, (1R,4S,5R)-5-((2-fluorobenzyl)oxy)-1-isopropyl-4-methyl-2-methylene-7-oxabicyclo[2.2.1]heptane], the figure is no less than 80%; as for `CC(C)[C@]12C[C@@H](OCc3ccccc3F)[C@](C)(C[C@H]1OCC1CC1)O2` [1-921, (1S,2R,4R,5R)-5-(cyclopropylmethoxy)-2-[(2-fluorophenyl)methoxy]-1-methyl-4-isopropyl-7-oxabicyclo[2.2.1]heptane], no less than 80%; as for `CC(C)[C@]12C=C[C@](C)(O1)[C@H](OCc1ccccc1F)C2` [3-5, (1R,4S,5R)-5-[(2-fluorophenyl)methoxy]-4-methyl-1-isopropyl-7-oxabicyclo[2.2.1]hept-2-ene], no less than 80%.
The same measure, in the same setting: as for `CC(C)[C@]12C[C@@H](OCc3ccccc3C#N)[C@](C)(C[C@@H]1Br)O2` [1-703, 2-[[(1S,2R,4R,5S)-5-bromo-1-methyl-4-isopropyl-7-oxabicyclo[2.2.1]heptan-2-yl]oxymethyl]benzonitrile], the figure is no less than 80%; as for `CC(C)[C@]12C[C@@H](OCc3cccc(F)c3)[C@](C)(CC1=O)O2` [2-351, (1R,4S,5R)-5-((3-fluorobenzyl)oxy)-1-isopropyl-4-methyl-7-oxabicyclo[2.2.1]heptan-2-one], no less than 80%; as for `Cc1cccc(C)c1CO[C@@H]1C[C@]2(C(C)C)O[C@@]1(C)CC2=O` [2-5, (1R,4S,5R)-5-((2,6-dimethylbenzyl)oxy)-1-isopropyl-4-methyl-7-oxabicyclo[2.2.1]heptan-2-one], no less than 80%.
Still for that read-out and setting: for `Cc1cccc(CO[C@@H]2C[C@]3(C(C)C)O[C@@]2(C)CC3=O)c1` [2-352, (1R,4S,5R)-1-isopropyl-4-methyl-5-((3-methylbenzyl)oxy)-7-oxabicyclo[2.2.1]heptan-2-one] the value was no less than 80%; for `Cc1ccccc1CO[C@@H]1C[C@]2(C(C)C)O[C@@]1(C)C[C@@H]2F` [1-2, (1R,2S,4S,5R)-2-fluoro-1-isopropyl-4-methyl-5-((2-methylbenzyl)oxy)-7-oxabicyclo[2.2.1]heptane], no less than 80%.
`CC(=O)O[C@H]1C[C@]2(C)O[C@@]1(C(C)C)C[C@H]2OCc1ccccc1F` [1-480, [(1R,2S,4S,5R)-5-[(2-fluorophenyl)methoxy]-4-methyl-1-isopropyl-7-oxabicyclo[2.2.1]heptan-2-yl]acetate]: the weed inhibition rate (in [1]; with Scirpus juncoides [7]; in assay [2]; in the assay on Scirpus juncoides [8]; with Digitaria ciliaris [3]; with Echinochloa crus-galli [4]) was no less than 80% throughout. In addition, the weed inhibition rate with Digitaria ciliaris [5] and in the assay on Echinochloa crus-galli [6] was no less than 80% throughout.
In the case of `CC(C)[C@]12C[C@@H](OCc3ccccc3Cl)[C@](C)(CC1=O)O2` [2-11, (1R,4S,5R)-5-((2-chlorobenzyl)oxy)-1-isopropyl-4-methyl-7-oxabicyclo[2.2.1]heptan-2-one], the inhibition at 1200 g/ha in the assay on Lindemia pyxidaria was no less than 80%.
Still for that read-out and setting: as for `C#CCO[C@@H]1C[C@]2(C)O[C@@]1(C(C)C)C[C@H]2OCc1ccccc1F` [1-931, (1S,2R,4R,5R)-2-[(2-fluorophenyl)methoxy]-1-methyl-4-isopropyl-5-prop-2-ynoxy-7-oxabicyclo[2.2.1]heptane], the figure is no less than 80%; as for `CC(C)[C@]12C[C@@H](OCc3c(F)cccc3F)[C@](C)(CC1=O)O2` [2-20, (1R,4S,5R)-5-((2,6-difluorobenzyl)oxy)-1-isopropyl-4-methyl-7-oxabicyclo[2.2.1]heptan-2-one], no less than 80%.
Consider `CC(C)[C@]12C[C@@H](OCc3cccc(C(F)(F)F)c3)[C@](C)(C[C@@H]1Br)O2` [1-701, (1S,2R,4R,5S)-5-bromo-1-methyl-4-isopropyl-2-[[3-(trifluoromethyl)phenyl]methoxy]-7-oxabicyclo[2.2.1]heptane], for which the inhibition at 1200 g/ha (in [1]; in assay [2]; in the assay on Digitaria ciliaris [3]; with Echinochloa crus-galli [4]; with Digitaria ciliaris [5]; with Echinochloa crus-galli [6]) was no less than 80% each time.
`CC(C)[C@]12C[C@@H](OCc3ccccc3F)[C@](C)(C[C@@H]1Br)O2` [1-19, (1S,2R,4R,5S)-5-bromo-2-[(2-fluorophenyl)methoxy]-1-methyl-4-isopropyl-7-oxabicyclo[2.2.1]heptane]: the inhibition at 1200 g/ha in the assay on Lindemia pyxidaria was no less than 80%.
Same read-out and setting: for `CC(C)=CCO[C@@H]1C[C@]2(C(C)C)O[C@@]1(C)C[C@@H]2Br` [1-672, (1S,2R,4R,5S)-5-bromo-1-methyl-2-(3-methylbut-2-enoxy)-4-isopropyl-7-oxabicyclo[2.2.1]heptane] the value was no less than 80%; for `C=C1C[C@]2(C)O[C@@]1(C(C)C)C[C@H]2OCc1ccccc1C` [2-72, (1R,4S,5R)-1-isopropyl-4-methyl-5-((2-methylbenzyl)oxy)-2-methylene-7-oxabicyclo[2.2.1]heptane], no less than 80%.

The term inhibition denotes the percentage by which the read-out fell short of the control.

The values are drawn from patent US20260327240A1, “1,4-CINEOLE DERIVATIVE AND INTERMEDIATE THEREOF, HERBICIDE CONTAINING SAID DERIVATIVE AS ACTIVE INGREDIENT, METHOD FOR USING HERBICIDE, AND METHOD FOR PREPARING AGROCHEMICAL COMPOSITION” (HOKKO CHEMICAL INDUSTRY CO., LTD., priority 2023, published 2026).
